Data as given in ChEMBL document CHEMBL1159253, “Two new cytotoxic monotetrahydrofuran Annonaceous acetogenins, annomuricins A and B, from the leaves of Annona muricata” (J Nat Prod, 1995).
Values after ≈ are worked out from the molar mass of the structure shown.

Columns and labels:
[1] = system: MCF7; experiment: Cytotoxicity against human MCF7 cells after 7 days by MTT assay; type: functional; conditions: for EC50: Homo sapiens, MCF7, 168 h, read-out: ED50 (the source's name)
[2] = Toxicity against brine shrimp; type: organism-based; conditions: artemia, in vivo
[3] = system: HT-29; experiment: Cytotoxicity against human HT-29 cells after 7 days by MTT assay; type: functional; conditions: HT-29, 168 h, read-out: ED50 (the source's name)
[4] = system: A549; experiment: Cytotoxicity against human A549 cells after 7 days by MTT assay; type: functional; conditions: for EC50: Homo sapiens, A549, 168 h, read-out: ED50 (the source's name)

For `CCCCCCCCCCCC[C@H](O)[C@H]1CC[C@H]([C@H](O)CCC[C@H]2OC(C)(C)O[C@@H]2CCCCC[C@@H](O)CC2=C[C@H](C)OC2=O)O1`, the ED50 [1] was 2.78 ×10⁻⁴ ug/ml, the LC50 [2] was 0.131 µg/mL (≈ 0.201 µM) and the EC50 [3] was over 1 µg/mL. For the same compound, the ED50 [4] was 1.58 ×10⁻⁴ ug/ml.

Compound `CCCCCCCCCCCC[C@H](O)[C@H]1CC[C@H]([C@H](O)CCC[C@@H]2OC(C)(C)O[C@@H]2CCCCC[C@@H](O)CC2=C[C@H](C)OC2=O)O1` has an ED50 [1] of 1.41 ×10⁻⁴ ug/ml, an LC50 [2] of 0.18 µg/mL (≈ 0.276 µM) and an EC50 [3] of 0.0933 µg/mL (≈ 0.143 µM). It also gave an ED50 [4] of 3.41 ×10⁻⁴ ug/ml.

Compound `CCCCCCCCCCCC[C@H](O)[C@H]1CC[C@H]([C@H](O)CCC[C@@H](O)[C@H](O)CCCCC[C@@H](O)CC2=C[C@H](C)OC2=O)O1` [ANNOMURICIN A] has an EC50 [1] of over 1 µg/mL, an LC50 [2] of 0.625 µg/mL (≈ 1.02 µM) and an EC50 [3] of over 1 µg/mL. The EC50 [4] was 0.33 µg/mL (≈ 0.538 µM).

With `CCCCCCCCCCCC[C@H](O)[C@H]1CC[C@H]([C@H](O)CCC[C@H](O)[C@H](O)CCCCC[C@@H](O)CC2=C[C@H](C)OC2=O)O1` [ANNOMURICIN B] the EC50 [1] was over 1 µg/mL, the LC50 [2] was 0.687 µg/mL (≈ 1.12 µM) and the EC50 [3] was 0.435 µg/mL (≈ 0.71 µM). For the same compound, the EC50 [4] was 0.159 µg/mL (≈ 0.259 µM).

`COc1cccc2c1C(=O)c1c(O)c3c(c(O)c1C2=O)C[C@@](O)(C(=O)CO)C[C@@H]3O[C@H]1C[C@H](N)[C@H](O)[C@H](C)O1` [DOXORUBICIN] gave an EC50 [1] of 0.126 µg/mL (≈ 0.232 µM), an EC50 [3] of 0.0275 µg/mL (≈ 0.0506 µM) and an EC50 [4] of 0.0101 µg/mL (≈ 0.0186 µM).
